# Source: PubChem BioAssay (NCI)
#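 All cell lines were grown in 96-well plates and treated with compound for 48 hours. TGI denotes the concentration required for complete inhibition of growth.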
# Legend:
# Assay in all cases: NCI tumour cell line growth inhibition, 48 h
# LOX IMVI melanoma = system: LOX IMVI melanoma
# T-47D breast = system: T-47D breast
# A498 renal = system: A498 renal
# OVCAR-8 ovarian = system: OVCAR-8 ovarian
# SW-620 colon = system: SW-620 colon
# NCI-H522 lung = system: NCI-H522 lung
# MALME-3M melanoma = system: MALME-3M melanoma
# KM12 colon = system: KM12 colon
# SK-MEL-28 melanoma = system: SK-MEL-28 melanoma
# CCRF-CEM leukemia = system: CCRF-CEM leukemia
# SR leukemia = system: SR leukemia
# HCT-116 colon = system: HCT-116 colon
# COLO 205 colon = system: COLO 205 colon
# HS 578T breast = system: HS 578T breast
# RPMI-8226 leukemia = system: RPMI-8226 leukemia
# M14 melanoma = system: M14 melanoma
# NCI-H460 lung = system: NCI-H460 lung
# SK-MEL-2 melanoma = system: SK-MEL-2 melanoma
# RXF 393 renal = system: RXF 393 renal
# MDA-MB-231 breast = system: MDA-MB-231 breast
# CAKI-1 renal = system: CAKI-1 renal
# HOP-62 NSCLC = system: HOP-62 NSCLC
# SK-OV-3 ovarian = system: SK-OV-3 ovarian
# SF-295 CNS = system: SF-295 CNS
# SK-MEL-5 melanoma = system: SK-MEL-5 melanoma
# OVCAR-4 ovarian = system: OVCAR-4 ovarian
# MOLT-4 leukemia = system: MOLT-4 leukemia
# HOP-92 NSCLC = system: HOP-92 NSCLC
# SN12C renal = system: SN12C renal
# OVCAR-3 ovarian = system: OVCAR-3 ovarian
# MDA-MB-435 = system: MDA-MB-435
# U251 CNS = system: U251 CNS
# SF-539 CNS = system: SF-539 CNS
# HL-60(TB) leukemia = system: HL-60(TB) leukemia
# BT-549 breast = system: BT-549 breast
# PC-3 prostate = system: PC-3 prostate
# UACC-257 melanoma = system: UACC-257 melanoma
# HCT-15 colon = system: HCT-15 colon
# TK-10 renal = system: TK-10 renal
# MDA-N = system: MDA-N
# NCI/ADR-RES ovarian = system: NCI/ADR-RES ovarian
# SF-268 CNS = system: SF-268 CNS
# SNB-75 CNS = system: SNB-75 CNS
# UO-31 renal = system: UO-31 renal
# HT29 colon = system: HT29 colon
# SNB-19 CNS = system: SNB-19 CNS
# OVCAR-5 ovarian = system: OVCAR-5 ovarian
# IGROV1 ovarian = system: IGROV1 ovarian
# NCI-H23 lung = system: NCI-H23 lung
# NCI-H226 lung = system: NCI-H226 lung
# ACHN renal = system: ACHN renal
# EKVX NSCLC = system: EKVX NSCLC
# HCC-2998 colon = system: HCC-2998 colon
# MCF7 breast = system: MCF7 breast
# DU-145 prostate = system: DU-145 prostate
# 786-0 renal = system: 786-0 renal
# A549 NSCLC = system: A549 NSCLC
# UACC-62 melanoma = system: UACC-62 melanoma
# K-562 leukemia = system: K-562 leukemia
smiles,measurement,setting,value
Cc1cccc(C2NC(=O)c3ccccc3N2)c1 (configuration not stated),TGI,LOX IMVI melanoma,> 100 µM
same,TGI,T-47D breast,> 100 µM
same,TGI,A498 renal,> 73.4 µM
same,TGI,OVCAR-8 ovarian,> 100 µM
same,TGI,SW-620 colon,> 100 µM
same,TGI,NCI-H522 lung,46.1 µM
same,TGI,MALME-3M melanoma,> 100 µM
same,TGI,KM12 colon,> 100 µM
same,TGI,SK-MEL-28 melanoma,> 100 µM
same,TGI,CCRF-CEM leukemia,> 100 µM
same,TGI,SR leukemia,> 100 µM
same,TGI,HCT-116 colon,> 100 µM
same,TGI,COLO 205 colon,> 100 µM
same,TGI,HS 578T breast,65.1 µM
same,TGI,RPMI-8226 leukemia,> 27 µM
same,TGI,M14 melanoma,> 54.8 µM
same,TGI,NCI-H460 lung,> 100 µM
same,TGI,SK-MEL-2 melanoma,> 42.8 µM
same,TGI,RXF 393 renal,> 23.7 µM
same,TGI,MDA-MB-231 breast,> 87.6 µM
same,TGI,CAKI-1 renal,> 100 µM
same,TGI,HOP-62 NSCLC,97.1 µM
same,TGI,SK-OV-3 ovarian,> 44.6 µM
same,TGI,SF-295 CNS,> 23.2 µM
same,TGI,SK-MEL-5 melanoma,> 100 µM
same,TGI,OVCAR-4 ovarian,> 100 µM
same,TGI,MOLT-4 leukemia,> 23.9 µM
same,TGI,HOP-92 NSCLC,> 100 µM
same,TGI,SN12C renal,> 100 µM
same,TGI,OVCAR-3 ovarian,> 100 µM
same,TGI,MDA-MB-435,2.77 µM
same,TGI,U251 CNS,> 31.6 µM
same,TGI,SF-539 CNS,9.07 µM
same,TGI,HL-60(TB) leukemia,> 27.2 µM
same,TGI,BT-549 breast,> 100 µM
same,TGI,PC-3 prostate,> 100 µM
same,TGI,UACC-257 melanoma,> 100 µM
same,TGI,HCT-15 colon,> 100 µM
same,TGI,TK-10 renal,> 100 µM
same,TGI,MDA-N,3.45 µM
same,TGI,NCI/ADR-RES ovarian,> 47.2 µM
same,TGI,SF-268 CNS,> 100 µM
same,TGI,SNB-75 CNS,> 100 µM
same,TGI,UO-31 renal,> 100 µM
same,TGI,HT29 colon,> 26.3 µM
same,TGI,SNB-19 CNS,> 100 µM
same,TGI,OVCAR-5 ovarian,> 100 µM
same,TGI,IGROV1 ovarian,> 100 µM
same,TGI,NCI-H23 lung,> 54.7 µM
same,TGI,NCI-H226 lung,50.5 µM
same,TGI,ACHN renal,> 100 µM
same,TGI,EKVX NSCLC,> 100 µM
same,TGI,HCC-2998 colon,> 100 µM
same,TGI,MCF7 breast,> 100 µM
same,TGI,DU-145 prostate,> 100 µM
same,TGI,786-0 renal,> 100 µM
same,TGI,A549 NSCLC,> 100 µM
same,TGI,UACC-62 melanoma,> 100 µM
CC(C)(CO[C@H]1C[C@H]2CC[C@@]1(C)C2(C)C)[N+](=O)[O-],TGI,LOX IMVI melanoma,35.1 µM
same,TGI,T-47D breast,45.6 µM
same,TGI,A498 renal,51.8 µM
same,TGI,OVCAR-8 ovarian,56.8 µM
same,TGI,SW-620 colon,59.8 µM
same,TGI,NCI-H522 lung,40.5 µM
same,TGI,MALME-3M melanoma,40.3 µM
same,TGI,KM12 colon,32.4 µM
same,TGI,SK-MEL-28 melanoma,34.9 µM
same,TGI,CCRF-CEM leukemia,> 100 µM
same,TGI,SR leukemia,42.3 µM
same,TGI,HCT-116 colon,29.1 µM
same,TGI,COLO 205 colon,31.4 µM
same,TGI,HS 578T breast,55.9 µM
same,TGI,RPMI-8226 leukemia,38.7 µM
same,TGI,M14 melanoma,27.1 µM
same,TGI,NCI-H460 lung,38.5 µM
same,TGI,SK-MEL-2 melanoma,31.3 µM
same,TGI,RXF 393 renal,26.1 µM
same,TGI,MDA-MB-231 breast,34.6 µM
same,TGI,CAKI-1 renal,60.3 µM
same,TGI,HOP-62 NSCLC,38.4 µM
same,TGI,K-562 leukemia,35 µM
same,TGI,SK-OV-3 ovarian,> 100 µM
same,TGI,SF-295 CNS,33.9 µM
same,TGI,SK-MEL-5 melanoma,31.6 µM
same,TGI,OVCAR-4 ovarian,76 µM
same,TGI,MOLT-4 leukemia,50.5 µM
same,TGI,HOP-92 NSCLC,43.4 µM
same,TGI,SN12C renal,> 100 µM
same,TGI,OVCAR-3 ovarian,56.5 µM
same,TGI,MDA-MB-435,34 µM
same,TGI,U251 CNS,31.5 µM
same,TGI,SF-539 CNS,32.1 µM
same,TGI,HL-60(TB) leukemia,22.5 µM
same,TGI,BT-549 breast,45.5 µM
same,TGI,PC-3 prostate,54.4 µM
same,TGI,UACC-257 melanoma,36.9 µM
same,TGI,HCT-15 colon,51.6 µM
same,TGI,TK-10 renal,34 µM
same,TGI,MDA-N,29.4 µM
same,TGI,NCI/ADR-RES ovarian,90.3 µM
same,TGI,SF-268 CNS,> 100 µM
same,TGI,SNB-75 CNS,45.1 µM
same,TGI,UO-31 renal,25.8 µM
same,TGI,HT29 colon,30.6 µM
same,TGI,SNB-19 CNS,37.2 µM
same,TGI,OVCAR-5 ovarian,33.9 µM
same,TGI,IGROV1 ovarian,> 100 µM
same,TGI,NCI-H23 lung,65.6 µM
same,TGI,NCI-H226 lung,36.1 µM
same,TGI,ACHN renal,> 100 µM
same,TGI,EKVX NSCLC,46.2 µM
same,TGI,HCC-2998 colon,5.19 µM
same,TGI,MCF7 breast,49.9 µM
same,TGI,DU-145 prostate,49.2 µM
same,TGI,786-0 renal,27.9 µM
same,TGI,A549 NSCLC,> 100 µM
same,TGI,UACC-62 melanoma,41.7 µM
